The text below walks through data of patent US12343403B2, “Targeted ligand-payload based drug delivery for cell therapy” (Purdue Research Foundation, priority 2017, dated 2025).

“Also recorded” adds a separate entry of the source.

Usually Kd stands for the free concentration of one partner at which half of the binding sites on the other are occupied at equilibrium, for simple one-to-one binding.

Experiment [1] addresses T1, FKBPFR3GS fusion receptor (Homo sapiens, UniProt P62942).
T1 construct: human FRa signal peptide (1-24 aa of human FRa) (N); expressed in transfected cells; host or cells: human T cells / Jurkat T cells, lentiviral transduction
Nature of the experiment: Binding assay of ligand-dye on FKBPFR3GS (FF3) fusion receptor stably expressed on human T cell, flow cytometry. The procedure: For binding assay, cells were incubated with ligand-dye alone or with ligand-dye and free ligands (100×, preincubated for 30 min) for 30 min, at 4 degree. Cells were washed 3 times after incubation, and re-suspended in 2% FBS PBS, 7-AAD were added to gate out the dead cells. […] FRET is visualized by the loss of intensity of FA-Rhodamine as its energy transferred to FA-OTL38 on the same or nearby receptor, detected by BD Fortessa flow cytometer. Results were analyzed using Flow Jo software.
For binding assay, cells were incubated with ligand-dye alone or with ligand-dye and free ligands (100×, preincubated for 30 min) for 30 min, at 4 degree. Cells were washed 3 times after incubation, and re-suspended in 2% FBS PBS, 7-AAD were added to gate out the dead cells. BD Fortessa flow cytometer were used. Results were analyzed using FlowJo software.
Background: A flow cytometer gives signals particle by particle.

The subject of experiment [2] is 4M5.3FR+ human T cells. Nature of the experiment: Cell viability assay, 4M5.3FR+ human T cells. The experiment is classed as cell-based.
Experiment [3] addresses T2, FKBPFR1GS fusion receptor (Homo sapiens, UniProt P62942).
T2 construct: human FRa signal peptide (1-24 aa of human FRa) (N); expressed in transfected cells; host or cells: Jurkat cells, lentiviral transduction
Nature of the experiment: Interference/FRET binding assay in FKBPFR1GS (FF1) fusion receptor Jurkat cells. The procedure: Cells were washed 3 times after incubation, and re-suspended in 2% FBS PBS, 7-AAD were added to gate out the dead cells. […] Results were analyzed using Flow Jo software. […]

Experiment [4] has as its system FF3+ human T cell. Conditions: 100× preincubation with FA. The procedure: Cells were seeded to 96 well plate and incubated with different concentration of certain ligand-cytotoxic drug for 2 h, with or without 100× preincubation of the free ligand competition. After 2 h incubation, cells were washed by warm medium 3 times and replenished with fresh medium. After 72 h, cell number were tested by CellTiter-Glo® assay (G7570, Promega) or quantified by ligand-dye staining of receptor positive cell.

For experiment [5], the system named is 4M5.3FR+ population in a mixed human T cell culture. The experiment in a line: Killing of 4M5.3FR+ population in a mixed human T cell culture. The experiment is classed as cell-based.
The target in experiment [6] is T3, FKBP51 (Homo sapiens, UniProt Q13451).
T3 sequence (Q13451 1-457): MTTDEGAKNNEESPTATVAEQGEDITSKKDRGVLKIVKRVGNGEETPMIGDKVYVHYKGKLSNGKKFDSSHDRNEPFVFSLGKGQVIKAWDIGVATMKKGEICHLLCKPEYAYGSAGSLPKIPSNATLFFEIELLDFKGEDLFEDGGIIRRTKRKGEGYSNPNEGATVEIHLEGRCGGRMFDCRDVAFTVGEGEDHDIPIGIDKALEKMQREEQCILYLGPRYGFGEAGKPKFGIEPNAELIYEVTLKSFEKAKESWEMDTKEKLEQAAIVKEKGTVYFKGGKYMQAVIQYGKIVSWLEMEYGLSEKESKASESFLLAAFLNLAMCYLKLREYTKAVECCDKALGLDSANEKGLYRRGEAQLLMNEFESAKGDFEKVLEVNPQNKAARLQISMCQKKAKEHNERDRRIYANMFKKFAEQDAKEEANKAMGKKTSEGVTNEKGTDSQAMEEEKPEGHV
Conditions: read-out: KD FK506; cited from earlier work.

Experiment [7] has as its system FMC63+4M5.3FR+hT cell towards Raji cell. Nature of the experiment: CAR T cell lysis effect, FMC63+4M5.3FR+ hT cell towards Raji cell. The experiment is classed as cell-based, human. The procedure: 1×10^5 CAR T and certain number of Raji cell were co-incubated in 96 well plate, according to the E:T ratio, with or without the treatment drug. After 24 h, 100 ul supernatant were taken out for LDH assay. Lysis percentage were calculated as (treatment group-CAR T only)/(maximum lysis-CAR T only) %

The conditions of experiment [8]: scFv against FITC; cited from earlier work.

T2 sequence (P62942 with tags, fused parts or gaps): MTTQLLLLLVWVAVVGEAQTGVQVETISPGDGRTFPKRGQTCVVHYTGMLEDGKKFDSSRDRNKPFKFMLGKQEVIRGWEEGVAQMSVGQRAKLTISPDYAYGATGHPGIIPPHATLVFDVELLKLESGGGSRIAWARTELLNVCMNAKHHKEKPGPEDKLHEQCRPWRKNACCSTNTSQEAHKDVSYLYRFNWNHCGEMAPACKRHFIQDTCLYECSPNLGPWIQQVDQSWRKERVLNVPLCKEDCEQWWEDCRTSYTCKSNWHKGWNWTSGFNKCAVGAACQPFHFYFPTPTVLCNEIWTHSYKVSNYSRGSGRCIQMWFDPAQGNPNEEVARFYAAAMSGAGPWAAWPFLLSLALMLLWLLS
T1 sequence (P62942 with tags, fused parts or gaps): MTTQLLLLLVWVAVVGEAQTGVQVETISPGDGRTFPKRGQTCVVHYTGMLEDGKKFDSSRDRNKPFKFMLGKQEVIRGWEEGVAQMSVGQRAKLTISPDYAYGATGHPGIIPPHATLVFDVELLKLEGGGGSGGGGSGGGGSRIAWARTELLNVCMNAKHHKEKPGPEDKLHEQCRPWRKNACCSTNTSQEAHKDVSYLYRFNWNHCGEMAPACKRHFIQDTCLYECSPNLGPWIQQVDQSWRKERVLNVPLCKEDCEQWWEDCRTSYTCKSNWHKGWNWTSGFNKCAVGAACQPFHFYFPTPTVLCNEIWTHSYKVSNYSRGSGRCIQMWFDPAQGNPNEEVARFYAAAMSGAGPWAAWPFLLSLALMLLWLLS

With `CCC(C)(C)C(=O)C(=O)N1CCCC[C@H]1C(=O)O[C@H](CCc1ccc(OC)c(OC)c1)c1cccc(OCC(=O)O)c1` [SLF], in experiment [1] (SLF vs FK506), the “times lower binding affinity to FKBPFR fusion receptor compared to parent ligand FK506” value is listed as 10 times. The “competition of SLF-FITC binding by free SLF” value in experiment [1] (free SLF 100×, preincubation) was “blocks SLF-FITC binding; also recorded: blocks this binding”.

As to `CO[C@H]1C[C@@H](C)[C@@]2(O)O[C@H]1[C@H](OC)C[C@H](C)C/C(C)=C\[C@H](C/C=C/c1ccc(C(=O)NCCCOCCOCCOCCCNC(=O)c3ccc(-c4c5ccc(=[N+](C)C)cc-5oc5cc(N(C)C)ccc45)c(C(=O)O)c3)cc1)C(=O)C[C@H](O)[C@@H](C)[C@@H](/C(C)=C/[C@@H]1CC[C@@H](O)[C@H](OC)C1)CC(=O)C1CCCCN1C(=O)C2=O` (stereo partly drawn) [FK506-Rhodamine], in experiment [1] (FF3 (3GS linker) compared to FF1, 10 nM FA), the “binding of FK506-Rhodamine in the presence of FA” value was “preserves the binding”.

Take FITC sodium: the “competition of receptor mediated killing effect by free FITC sodium” value in experiment [2] (100× preincubation) was “blocks the receptor mediated killing effect”.

`COc1ccc(CCC(OC(=O)C2CCCCN2C(=O)C(=O)C(C)(C)C)c2cccc(NC(=O)CCC(=O)NCCOCCOCCOCCNC(=S)Nc3ccc(-c4c5ccc(=O)cc-5oc5cc(O)ccc45)c(C(=O)O)c3)c2)cc1OC` (stereo not drawn) [SLF-FITC] showed a Kd in experiment [1] (FKBPFR3GS fusion receptor stably expressed on human T cell, 30 min, 4 degree) of 62 nM.

Take `Nc1nc(=O)c2nc(CNc3ccc(C(=O)N[C@@H](CCC(=O)O)C(=O)O)cc3)cnc2[nH]1` [Folate acid]: the “concentration at which Folate acid totally abolishes FK506-Rhodamine binding” value in experiment [3] (FKBPFR1GS fusion protein) stood at 50 nM. Further, in experiment [3] (FKBPFR1GS fusion protein, lowest blocking concentration), the “concentration at which Folate acid blocks the binding of FK506-Rhodamine” value was at least 10 pM. Moreover, the “competition of FA-Tubulysin killing effect by FA” value in experiment [4] is recorded as “blocks the effect”.

Take `COc1cc2cc(c1Cl)N(C)C(=O)C[C@H](OC(=O)[C@H](C)N(C)C(=O)CCC(C)(C)SSCCNC(=S)Nc1cccc3c1C(=O)OC31c3ccc(O)cc3Oc3cc(O)ccc31)C1(C)O[C@H]1[C@H](C)C1CC(O)(NC(=O)O1)[C@H](OC)/C=C\C=C(\C)C2` (stereo partly drawn) [FITC-DM4]: the “killing of 4M5.3FR+ human T cells” value in experiment [2] (2 h incubation, read after 72 h) is “specifically kill”. For the same molecule, the “killing of 4M5.3FR+ population in mixed human T cell culture” value in experiment [5] (4M5.3FR+ cells, increasing concentration) is “specifically kill the 4M5.3FR+ population”. Further, the “killing of 4M5.3FR- cells in mixed human T cell culture” value in experiment [5] (4M5.3FR- cells, high concentration, bystander effect) was “killed also through released drugs and bystander effect at high concentration”.

Turning to `C=CC[C@@H]1/C=C(\C)C[C@H](C)C[C@H](OC)[C@H]2O[C@@](O)(C(=O)C(=O)N3CCCC[C@H]3C(=O)O[C@H](/C(C)=C/[C@@H]3CC[C@@H](O)[C@H](OC)C3)[C@H](C)[C@@H](O)CC1=O)[C@H](C)C[C@@H]2OC` [FK506], the equilibrium dissociation constant (Kd) in experiment [6] was about 104 nM.

`Cc1nc(Nc2ncc(C(=O)Cc3c(C)cccc3Cl)s2)cc(N2CCN(CCOC(=O)OCCSSCCNC(=S)Nc3ccc4c(c3)C(=O)OC43c4ccc(O)cc4Oc4cc(O)ccc43)CC2)n1` [FITC-Dasatinib]: the “lysis effect of FMC63+4M5.3FR+ hT cell towards Raji cell” value in experiment [7] is on record as “decrease the lysis effect”.

For the molecule OTL38, in experiment [3] (FKBPFR1GS jurkat cell, FK506-Rhodamine donor, OTL38 acceptor), the “FRET: FK506-Rhodamine intensity after binding to OTL38” value is listed as “decreased FK506-Rhodamine intensity”.

B1: 4M5.3: scFv against FITC, SEQ ID NO:19 (protein)
scFv: DVVMTQTPLSLPVSLGDQASISCRSSQSLVHSNGNTYLRWYLQKPGQSPKVLIYKVSNRVSGVPDRFSGSGSGTDFTLKINRVEAEDLGVYFCSQSTHVPWTFGGGTKLEIKSSADDAKKDAAKKDDAKKDDAKKDGGVKLDETGGGLVQPGGAMKLSCVTSGFTFGHYWMNWVRQSPEKGLEWVAQFRNKPYNYETYYSDSVKGRFTISRDDSKSSVYLQMNNLRVEDTGIYYCTGASYGMEYLGQGTSVTVSS
modifications: A synthetic scFv against FITC 4M5.3(Kd = 200pM)
Turning to B1, in experiment [8], the dissociation constant (Kd) was 0.2 nM.
